According to ChEMBL document CHEMBL1201861, “Genomics of Drug Sensitity in Cancer screening data, Wellcome Trust Sanger Institute”:
Counter-ions that a name gives are not always drawn.

tested on: NCI-H1623; assay: cells; type: functional, cell-based, Homo sapiens; conditions: Homo sapiens, NCI-H1623;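 also: cell viability assay used as the read-out for growth inhibition of NCI-H1623 cells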
Description: SANGER: Inhibition of human NCI-H1623 cell growth in a cell viability assay.

**Q.** Which IC50 does the source give for `COC1=CC(c2cc3ccccc3[nH]2)=N/C1=C\c1[nH]c(C)cc1C` [OBATOCLAX MESYLATE] here?
**A.** The IC50 was 3.09 µM.

tested on: NCI-H1693; assay: cells; type: functional, cell-based, Homo sapiens; conditions: Homo sapiens, NCI-H1693;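 also: growth inhibition of the human cell line, read out with a cell viability assay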
Description: SANGER: Inhibition of human NCI-H1693 cell growth in a cell viability assay.

**Q.** Which IC50 does the source give for `COC1=CC(c2cc3ccccc3[nH]2)=N/C1=C\c1[nH]c(C)cc1C` [OBATOCLAX MESYLATE] here?
**A.** The IC50 was 2 µM.

tested on: NCI-H1793; assay: cells; type: functional, cell-based, Homo sapiens; conditions: Homo sapiens, NCI-H1793;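 also: cell growth inhibition, read out by a cell viability assay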
Description: SANGER: Inhibition of human NCI-H1793 cell growth in a cell viability assay.

**Q.** For `COC1=CC(c2cc3ccccc3[nH]2)=N/C1=C\c1[nH]c(C)cc1C` [OBATOCLAX MESYLATE], which IC50 is on record?
**A.** The IC50 was over 16 µM.

tested on: OPM-2; assay: cells; type: functional, cell-based, Homo sapiens; conditions: Homo sapiens, OPM-2;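 also: growth of OPM-2 cells measured with a viability assay, IC50 for suppression of proliferation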
Description: SANGER: Inhibition of human OPM-2 cell growth in a cell viability assay.

**Q.** Which IC50 does the source give for `COC1=CC(c2cc3ccccc3[nH]2)=N/C1=C\c1[nH]c(C)cc1C` [OBATOCLAX MESYLATE] here?
**A.** Its IC50 is 0.509 µM.

tested on: PA-1; assay: cells; type: functional, cell-based, Homo sapiens; conditions: Homo sapiens, PA-1;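 also: IC50 for suppression of PA-1 cell proliferation, determined with a cell viability read-out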
Description: SANGER: Inhibition of human PA-1 cell growth in a cell viability assay.

**Q.** For `COC1=CC(c2cc3ccccc3[nH]2)=N/C1=C\c1[nH]c(C)cc1C` [OBATOCLAX MESYLATE], which IC50 is on record?
**A.** Its IC50 is 0.0877 µM.

tested on: SIMA; assay: cells; type: functional, cell-based, Homo sapiens; conditions: Homo sapiens, SIMA;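 also: growth inhibition of SIMA cells, measured with a cell viability readout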
Description: SANGER: Inhibition of human SIMA cell growth in a cell viability assay.

**Q.** How did the IC50 turn out when `COC1=CC(c2cc3ccccc3[nH]2)=N/C1=C\c1[nH]c(C)cc1C` [OBATOCLAX MESYLATE] was run?
**A.** Its IC50 is 0.494 µM.

tested on: SJRH30; assay: cells; type: functional, cell-based, Homo sapiens; conditions: Homo sapiens, SJRH30;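 also: growth inhibition of human SJRH30 cells, read out with a cell viability assay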
Description: SANGER: Inhibition of human SJRH30 cell growth in a cell viability assay.

**Q.** How did the IC50 turn out when `COC1=CC(c2cc3ccccc3[nH]2)=N/C1=C\c1[nH]c(C)cc1C` [OBATOCLAX MESYLATE] was run?
**A.** The IC50 was 0.321 µM.

tested on: SK-HEP1; assay: cells; type: functional, cell-based, Homo sapiens, SK-HEP-1; conditions: Homo sapiens, SK-HEP1;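 also: cell viability readout used to quantify reduction in proliferation of human SK-HEP-1 cells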
Description: SANGER: Inhibition of human SK-HEP-1 cell growth in a cell viability assay.

**Q.** How did the IC50 turn out when `COC1=CC(c2cc3ccccc3[nH]2)=N/C1=C\c1[nH]c(C)cc1C` [OBATOCLAX MESYLATE] was run?
**A.** The IC50 was 0.196 µM.

tested on: SK-MEL-24; assay: cells; type: functional, cell-based, Homo sapiens; conditions: Homo sapiens, SK-MEL-24;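 also: growth inhibition read out by a cell viability assay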
Description: SANGER: Inhibition of human SK-MEL-24 cell growth in a cell viability assay.

**Q.** How did the IC50 turn out when `COC1=CC(c2cc3ccccc3[nH]2)=N/C1=C\c1[nH]c(C)cc1C` [OBATOCLAX MESYLATE] was run?
**A.** The IC50 was 0.913 µM.

tested on: SK-MEL-30; assay: cells; type: functional, cell-based, Homo sapiens; conditions: Homo sapiens, SK-MEL-30;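 also: growth inhibition of SK-MEL-30 cells, determined with a cell viability assay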
Description: SANGER: Inhibition of human SK-MEL-30 cell growth in a cell viability assay.

**Q.** `COC1=CC(c2cc3ccccc3[nH]2)=N/C1=C\c1[nH]c(C)cc1C` [OBATOCLAX MESYLATE] was tested. Which IC50 did it give?
**A.** The IC50 was under 0.0625 µM.

tested on: SW780; assay: cells; type: functional, cell-based, Homo sapiens; conditions: Homo sapiens, SW780;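 also: growth inhibition of the cells, read out with a cell viability assay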
Description: SANGER: Inhibition of human SW780 cell growth in a cell viability assay.

**Q.** How did the IC50 turn out when `COC1=CC(c2cc3ccccc3[nH]2)=N/C1=C\c1[nH]c(C)cc1C` [OBATOCLAX MESYLATE] was run?
**A.** Its IC50 is 1.09 µM.

tested on: CWR22R; assay: cells; type: functional, cell-based, Homo sapiens; conditions: Homo sapiens, 22Rv1;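 also: growth inhibition of 22Rv1 cells, read out with a cell viability assay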
Description: SANGER: Inhibition of human 22RV1 cell growth in a cell viability assay.

**Q.** Which IC50 does the source give for `COC1=CC(c2cc3ccccc3[nH]2)=N/C1=C\c1[nH]c(C)cc1C` [OBATOCLAX MESYLATE] here?
**A.** The IC50 was 0.274 µM.

tested on: 769-P; assay: cells; type: functional, cell-based, Homo sapiens; conditions: Homo sapiens, 769-P
Description: SANGER: Inhibition of human 769-P cell growth in a cell viability assay.

**Q.** With `COC1=CC(c2cc3ccccc3[nH]2)=N/C1=C\c1[nH]c(C)cc1C` [OBATOCLAX MESYLATE] as the molecule, how does the IC50 read?
**A.** Its IC50 is under 0.0625 µM.

tested on: A673; assay: cells; type: functional, cell-based, Homo sapiens; conditions: Homo sapiens, A673;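 also: growth inhibition of human A673 cells, read out through a cell viability assay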
Description: SANGER: Inhibition of human A673 cell growth in a cell viability assay.

**Q.** `COC1=CC(c2cc3ccccc3[nH]2)=N/C1=C\c1[nH]c(C)cc1C` [OBATOCLAX MESYLATE] was tested. Which IC50 did it give?
**A.** The IC50 was 0.752 µM.

tested on: BL-41; assay: cells; type: functional, cell-based, Homo sapiens; conditions: Homo sapiens, BL-41;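 also: growth inhibition of human BL-41 cells, read out with a cell viability assay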
Description: SANGER: Inhibition of human BL-41 cell growth in a cell viability assay.

**Q.** For `COC1=CC(c2cc3ccccc3[nH]2)=N/C1=C\c1[nH]c(C)cc1C` [OBATOCLAX MESYLATE], which IC50 is on record?
**A.** The IC50 was 0.0622 µM.

tested on: BL-70; assay: SANGER: Inhibition of human BL-70 cell growth in a cell viability assay.; type: functional, cell-based; conditions: Homo sapiens, BL-70

**Q.** `COC1=CC(c2cc3ccccc3[nH]2)=N/C1=C\c1[nH]c(C)cc1C` [OBATOCLAX MESYLATE] was tested. Which IC50 did it give?
**A.** The IC50 was 0.063 µM.

tested on: CAL-27; assay: cells; type: functional, cell-based, Homo sapiens; conditions: Homo sapiens, CAL-27;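 also: Viability-based readout, IC50 reflecting inhibition of CAL-27 cell growth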
Description: SANGER: Inhibition of human CAL-27 cell growth in a cell viability assay.

**Q.** How did the IC50 turn out when `COC1=CC(c2cc3ccccc3[nH]2)=N/C1=C\c1[nH]c(C)cc1C` [OBATOCLAX MESYLATE] was run?
**A.** The IC50 was 0.0646 µM.

tested on: CAL-39; assay: cells; type: functional, cell-based, Homo sapiens; conditions: Homo sapiens, CAL-39;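 also: cell viability assay measuring growth inhibition of CAL-39 cells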
Description: SANGER: Inhibition of human CAL-39 cell growth in a cell viability assay.

**Q.** For `COC1=CC(c2cc3ccccc3[nH]2)=N/C1=C\c1[nH]c(C)cc1C` [OBATOCLAX MESYLATE], which IC50 is on record?
**A.** The IC50 was 0.229 µM.

tested on: CAL-51; assay: cells; type: functional, cell-based, Homo sapiens; conditions: Homo sapiens, CAL-51;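 also: human CAL-51 cell line, growth inhibition read out via a cell viability assay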
Description: SANGER: Inhibition of human CAL-51 cell growth in a cell viability assay.

**Q.** `COC1=CC(c2cc3ccccc3[nH]2)=N/C1=C\c1[nH]c(C)cc1C` [OBATOCLAX MESYLATE] was tested. Which IC50 did it give?
**A.** Its IC50 is 0.04 µM.

tested on: CAL-62; assay: cells; type: functional, cell-based, Homo sapiens; conditions: Homo sapiens, CAL-62;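 also: growth inhibition of CAL-62 cells, read out with a cell viability assay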
Description: SANGER: Inhibition of human CAL-62 cell growth in a cell viability assay.

**Q.** With `COC1=CC(c2cc3ccccc3[nH]2)=N/C1=C\c1[nH]c(C)cc1C` [OBATOCLAX MESYLATE] as the molecule, how does the IC50 read?
**A.** Its IC50 is 0.026 µM.

tested on: TE-15; assay: cells; type: functional, cell-based, Homo sapiens; conditions: Homo sapiens, TE-15;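 also: cell viability readout of growth inhibition in TE-15 cells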
Description: SANGER: Inhibition of human TE-15 cell growth in a cell viability assay.

**Q.** How did the IC50 turn out when `COC1=CC(c2cc3ccccc3[nH]2)=N/C1=C\c1[nH]c(C)cc1C` [OBATOCLAX MESYLATE] was run?
**A.** Its IC50 is 0.203 µM.

tested on: WM-115; assay: cells; type: functional, cell-based, Homo sapiens; conditions: Homo sapiens, WM-115
Description: SANGER: Inhibition of human WM-115 cell growth in a cell viability assay.

**Q.** `COC1=CC(c2cc3ccccc3[nH]2)=N/C1=C\c1[nH]c(C)cc1C` [OBATOCLAX MESYLATE] was tested. Which IC50 did it give?
**A.** The IC50 was 4.51 µM.

tested on: CESS; assay: SANGER: Inhibition of human CESS cell growth in a cell viability assay.; type: functional, cell-based; conditions: Homo sapiens, CESS

**Q.** How did the IC50 turn out when `COC1=CC(c2cc3ccccc3[nH]2)=N/C1=C\c1[nH]c(C)cc1C` [OBATOCLAX MESYLATE] was run?
**A.** The IC50 was 0.0827 µM.

tested on: CHP-212; assay: cells; type: functional, cell-based, Homo sapiens; conditions: Homo sapiens, CHP-212
Description: SANGER: Inhibition of human CHP-212 cell growth in a cell viability assay.

**Q.** How did the IC50 turn out when `COC1=CC(c2cc3ccccc3[nH]2)=N/C1=C\c1[nH]c(C)cc1C` [OBATOCLAX MESYLATE] was run?
**A.** Its IC50 is 0.081 µM.
